Entries after “also recorded” stand apart in the source; their conditions may differ. Square brackets hold non-standard residues; d marks the D form. Ends that are not written are not given here. Peptide text beside a SMILES is read from it. Phe(4-Cl) = N[C@@H](Cc1ccc(Cl)cc1)C(=O)O; AllylGly = C=CC[C@H](N)C(=O)O; Nle = CCCC[C@H](N)C(=O)O; Abu = CC[C@H](N)C(=O)O
Assays:
Format in all cases: cell-based, human
HUVEC [1] = conditions: for Activity in Proliferation: Yes/No summary
Description: Several assays were used to test the peptides discussed in the Examples herein. A colorimetric based proliferation assay using WST-1 (Roche, 11644807001) proliferation reagent was carried out using HUVEC cells. 2000 cells/well were plated in 96-well plates and allowed to adhere overnight. On the following day, the media was exchanged with fully supplemented media containing peptides or equivalent DMSO vehicle for the controls. Three days later the media containing the peptides was replaced with serum-free EBM-2 media containing WST-1 reagent and the plates were incubated for four hours as per the manufacturer's recommendations. Changes in color, due to the formazan dye resulted from the cleavage of the tetrazolium salt WST-1 by the mitochondrial succinate-tetrazolium reductase, were read on a Victor V fluorescence plate reader (Perkin Elmer, MA) by measuring the absorbance at 450 nm Dose response curves of percent live cells (in comparison to untreated cells but incubated in complete media with 0.2% DMSO) were created. Assays were performed in at least two independent replicates and each replicate was performed using three experimental triplicates.

HUVEC [2] = assay: HUVEC migration assay (RT-CIM); conditions: for Activity in Migration: Yes/No summary, active = inhibitory potential greater than 30%; for Migration Inhibition (50 uM): 50 uM peptide
Description: The inhibitory potential of the peptides was measured using a real time migration assay system based on electrical impedance (RT-CIM, ACEA Biosciences, CA). CIM 16 well plates (Roche, 05665817001) are composed of a top and bottom chamber separated by a microporous (8 μm) polycarbonate membrane. The membrane was coated with fibronectin (20 μg/mL), and 45,000 cells/well in serum free media with or without peptides were added to the top compartment. Media with chemoattractant (i.e., fully supplemented EBM-2) was added to the bottom compartment of the chamber and the plate was incubated at 37° C. for 20 hours. The sensors integrated on the bottom side of the membrane monitor and continuously record changes in impedance as the cells move through the membrane. The RT-CIM technology allows for easy quantification of cell migration by monitoring the cell index derived from the measured impedances. Assays were performed in at least two independent replicates and each replicate was performed using two experimental duplicates.

HUVEC [3] = conditions: HUVEC; for Adhesion Inhibition (100 uM): 100 uM peptide; for Activity in Adhesion: Yes/No summary, active = inhibitory potential greater than 30%
Description: Similar to the migration assays, the inhibition activity of the peptide in cellular adhesion was assessed using the RT-CIM technology. In this case, 25,000 cells/well were plated in 16 wells E-plates (Roche, Basel Switzerland) in the presence or absence of the peptide. The adhesion was monitored over time (3 hours) by measuring changes in the electrical impedance, which is a direct measure of the cells adhering on the electrodes. […] Assays were performed in at least two independent replicates and each replicate was performed using two experimental duplicates.

HUVEC [4] = assay: HUVEC tube formation assay on Matrigel; conditions: for Tube formation Inhibition (100 uM): 100 uM peptide; for Activity in Tube formation: Yes/No summary; for inhibition of tube formation (FIG. 20): high dose, 100 nM
Description: The compounds also were tested for their ability to inhibit tube formation, a process critical in angiogenesis. Endothelial cells spontaneously form a network of tubes when plated on extracts of extracellular matrix. This in vitro assay combines aspects of adhesion and migration and it is routinely used in angiogenesis research (Oliveira-Ferrer et al., 2008). The ability to inhibit tube formation is a comprehensive assessment of the anti-angiogenic potential. The protocol was described by Arnaoutova et al. (2009) and it consists of plating HUVEC on top of basement membrane extract and after incubation at 37° C. the cells naturally rearrange themselves in a network of tubes. Thus, 50 μL/well of Matrigel (BD Biosciences, San Jose, Calif.) was plated in a cold 96 well plate and incubated at 37° C. for 30 min for polymerization. 15,000 cells/well were added to the top of the gel and incubated in complete media in the presence or absence of peptide for 19 hours. Images were captured using the CCD Sensicam mounted on a Nikon microscope (Eclipse T-100). Assays were performed in at least two independent replicates and each replicate was performed using three experimental replicates and one image of a randomly chosen field was acquired per well.

C=CC[C@H](NC(=O)[C@H](Cc1ccccc1)NC(=O)[C@H](CCSC)NC(=O)[C@H](Cc1ccccc1)NC(=O)[C@@H]1CCCN1C(=O)[C@H](CCSC)NC(=O)[C@@H](NC(=O)[C@H](CO)NC(=O)[C@H](Cc1ccccc1)NC(=O)[C@H](CCCNC(=N)N)NC(=O)[C@H](CCCNC(=N)N)NC(=O)[C@@H](N)CC(C)C)[C@@H](C)O)C(=O)N[C@@H](CC(N)=O)C(=O)N[C@H](C(=O)N[C@@H](CC(N)=O)C(=O)N[C@@H](CC(N)=O)C(=O)N[C@H](C(=O)N[C@@H](CC=C)C(=O)N[C@@H](CC(N)=O)C(=O)N[C@@H](Cc1ccccc1)C(N)=O)C(C)C)[C@@H](C)CC [SP2026, LRRFSTMPFMF(AllyGly)NINNV(AllyGly)NF] (H-LRRFSTMPFMF[AllylGly]NINNV[AllylGly]NF-NH2; N-terminus assumed)
IC50 (HUVEC [1]): 8.23 µM | inhibition of proliferation (HUVEC [1]; HUVEC): not affected | Activity in Proliferation (HUVEC [1]; HUVEC): Yes | Migration Inhibition (5 uM) (HUVEC [2]; 5 uM peptide): 11.43% | Activity in Migration (HUVEC [2]): Yes | Adhesion Inhibition (100 uM) (HUVEC [3]): 96.61% | Activity in Adhesion (HUVEC [3]): Yes | Tube formation Inhibition (100 uM) (HUVEC [4]): Complete | Activity in Tube formation (HUVEC [4]): Yes

CC[C@H](NC(=O)[C@H](Cc1ccccc1)NC(=O)[C@H](CCSC)NC(=O)[C@H](C)NC(=O)[C@@H]1CCCN1C(=O)[C@H](CCSC)NC(=O)[C@@H](NC(=O)[C@H](CO)NC(=O)[C@H](Cc1ccccc1)NC(=O)[C@H](CCCNC(=N)N)NC(=O)[C@H](CCCNC(=N)N)NC(=O)[C@@H](N)CC(C)C)[C@@H](C)O)C(=O)N[C@@H](CC(N)=O)C(=O)N[C@H](C(=O)N[C@@H](CC(N)=O)C(=O)N[C@@H](CC(N)=O)C(=O)N[C@H](C(=O)N[C@@H](CC)C(=O)N[C@@H](CC(N)=O)C(=O)N[C@@H](Cc1ccccc1)C(N)=O)C(C)C)[C@@H](C)CC [SP2015, LRRFSTMPAMF(Abu)NINNV(Abu)NF] (H-LRRFSTMPAMF[Abu]NINNV[Abu]NF-NH2; N-terminus assumed)
Migration Inhibition (50 uM) (HUVEC [2]): 100% | Adhesion Inhibition (100 uM) (HUVEC [3]): 96% | Tube formation Inhibition (100 uM) (HUVEC [4]): Complete | inhibition of tube formation (HUVEC [4]; concentration not given): significant inhibition of tube formation

CC[C@H](NC(=O)[C@H](Cc1ccccc1)NC(=O)[C@H](CCSC)NC(=O)[C@@H](N)Cc1ccccc1)C(=O)N[C@@H](CC(N)=O)C(=O)N[C@H](C(=O)N[C@@H](CC(N)=O)C(=O)N[C@@H](CC(N)=O)C(=O)N[C@H](C(=O)N[C@@H](CC)C(=O)N[C@@H](CC(N)=O)C(=O)N[C@@H](Cc1ccccc1)C(=O)O)C(C)C)[C@@H](C)CC [SP2010, FMFAbuNINNVAbuNF] (H-FMF[Abu]NINNV[Abu]NF-OH; N-terminus and C-terminus assumed)
IC50 (HUVEC [1]): 155 µM | Activity in Proliferation (HUVEC [1]; HUVEC): No | Migration Inhibition (50 uM) (HUVEC [2]): 13% | Activity in Migration (HUVEC [2]): No | Adhesion Inhibition (100 uM) (HUVEC [3]): 82.69% | Activity in Adhesion (HUVEC [3]): Yes | Tube formation Inhibition (100 uM) (HUVEC [4]): complete inhibition of tube formation | Activity in Tube formation (HUVEC [4]): Yes | inhibition of tube formation (FIG. 20) (HUVEC [4]): displayed activity in inhibiting tube formation

NINNVAbuNF (NINNVXNF; Abu non-natural residue; Artificial sequence based on the human Collagen Type IV protein) [SP2009]
Activity in Proliferation (HUVEC [1]; HUVEC): No | Proliferation Inhibition (IC50 in uM) (HUVEC [1]; HUVEC, summary tables 2-4, 6, 7): Inactive | Migration Inhibition (50 uM) (HUVEC [2]): 55% | Activity in Migration (HUVEC [2]): Yes | inhibition of migration (HUVEC [2]; concentration not given): inhibitory activity; also recorded: active in migration | Adhesion Inhibition (100 uM) (HUVEC [3]): 0% | Activity in Adhesion (HUVEC [3]): No | Tube formation Inhibition (100 uM) (HUVEC [4]): Partial | Activity in Tube formation (HUVEC [4]): Yes | inhibition of tube formation (FIG. 20) (HUVEC [4]): displayed activity in inhibiting tube formation

LRRFSTMPFMFGNINNVGNF-NH2 [SP2002]
IC50 (HUVEC [1]): 31.4 µM | Migration Inhibition (50 uM) (HUVEC [2]): 87.9% | Tube formation Inhibition (100 uM) (HUVEC [4]): Complete

CC[C@H](NC(=O)[C@H](C)NC(=O)[C@H](CCSC)NC(=O)[C@H](Cc1ccccc1)NC(=O)[C@@H]1CCCN1C(=O)[C@H](CCSC)NC(=O)[C@@H](NC(=O)[C@H](CO)NC(=O)[C@H](Cc1ccccc1)NC(=O)[C@H](CCCNC(=N)N)NC(=O)[C@H](CCCNC(=N)N)NC(=O)[C@@H](N)CC(C)C)[C@@H](C)O)C(=O)N[C@@H](CC(N)=O)C(=O)N[C@H](C(=O)N[C@@H](CC(N)=O)C(=O)N[C@@H](CC(N)=O)C(=O)N[C@H](C(=O)N[C@@H](CC)C(=O)N[C@@H](CC(N)=O)C(=O)N[C@@H](Cc1ccccc1)C(N)=O)C(C)C)[C@@H](C)CC [SP2017, LRRFSTMPFMA(Abu)NINNV(Abu)NF] (H-LRRFSTMPFMA[Abu]NINNV[Abu]NF-NH2; N-terminus assumed)
Migration Inhibition (50 uM) (HUVEC [2]): 100% | Adhesion Inhibition (100 uM) (HUVEC [3]): 95.5%%

CCCC[C@H](NC(=O)[C@H](Cc1ccccc1)NC(=O)[C@@H]1CCCN1C(=O)[C@H](CCSC)NC(=O)[C@@H](NC(=O)[C@H](CO)NC(=O)[C@H](Cc1ccccc1)NC(=O)[C@H](CCCNC(=N)N)NC(=O)[C@H](CCCNC(=N)N)NC(=O)[C@@H](N)CC(C)C)[C@@H](C)O)C(=O)N[C@@H](Cc1ccccc1)C(=O)N[C@@H](CC)C(=O)N[C@@H](CC(N)=O)C(=O)N[C@H](C(=O)N[C@@H](CC(N)=O)C(=O)N[C@@H](CC(N)=O)C(=O)N[C@H](C(=O)N[C@@H](CC)C(=O)N[C@@H](CC(N)=O)C(=O)N[C@@H](Cc1ccccc1)C(N)=O)C(C)C)[C@@H](C)CC [SP2018, LRRFSTMPF(Nle)F(Abu)NINNV(Abu)NF] (H-LRRFSTMPF[Nle]F[Abu]NINNV[Abu]NF-NH2; N-terminus assumed)
Migration Inhibition (50 uM) (HUVEC [2]): 100% | Adhesion Inhibition (100 uM) (HUVEC [3]): 90.9%%

CC[C@H](NC(=O)[C@H](Cc1ccc(Cl)cc1)NC(=O)[C@H](CCSC)NC(=O)[C@H](Cc1ccccc1)NC(=O)[C@@H]1CCCN1C(=O)[C@H](CCSC)NC(=O)[C@@H](NC(=O)[C@H](CO)NC(=O)[C@H](Cc1ccccc1)NC(=O)[C@H](CCCNC(=N)N)NC(=O)[C@H](CCCNC(=N)N)NC(=O)[C@@H](N)CC(C)C)[C@@H](C)O)C(=O)N[C@@H](CC(N)=O)C(=O)N[C@H](C(=O)N[C@@H](CC(N)=O)C(=O)N[C@@H](CC(N)=O)C(=O)N[C@H](C(=O)N[C@@H](CC)C(=O)N[C@@H](CC(N)=O)C(=O)N[C@@H](Cc1ccccc1)C(N)=O)C(C)C)[C@@H](C)CC [SP2019, LRRFSTMPFM(4-ClPhe)(Abu)NINNV(Abu)NF] (H-LRRFSTMPFM[Phe(4-Cl)][Abu]NINNV[Abu]NF-NH2; N-terminus assumed)
Migration Inhibition (50 uM) (HUVEC [2]): 98% | Adhesion Inhibition (100 uM) (HUVEC [3]): 95.9%

CC[C@H](NC(=O)[C@H](Cc1ccccc1)NC(=O)[C@H](C)NC(=O)[C@H](Cc1ccccc1)NC(=O)[C@@H]1CCCN1C(=O)[C@H](CCSC)NC(=O)[C@@H](NC(=O)[C@H](CO)NC(=O)[C@H](Cc1ccccc1)NC(=O)[C@H](CCCNC(=N)N)NC(=O)[C@H](CCCNC(=N)N)NC(=O)[C@@H](N)CC(C)C)[C@@H](C)O)C(=O)N[C@@H](CC(N)=O)C(=O)N[C@H](C(=O)N[C@@H](CC(N)=O)C(=O)N[C@@H](CC(N)=O)C(=O)N[C@H](C(=O)N[C@@H](CC)C(=O)N[C@@H](CC(N)=O)C(=O)N[C@@H](Cc1ccccc1)C(N)=O)C(C)C)[C@@H](C)CC [SP2016, LRRFSTMPFAF(Abu)NINNV(Abu)NF] (H-LRRFSTMPFAF[Abu]NINNV[Abu]NF-NH2; N-terminus assumed)
Migration Inhibition (50 uM) (HUVEC [2]): 99.6% | Adhesion Inhibition (100 uM) (HUVEC [3]): 96%

— patent publication US9056923B2, “Mimetic peptides derived from collagen type IV and their use for treating angiogenesis- and lymphagiogenesis-dependent diseases” (THE JOHNS HOPKINS UNIVERSITY, priority 2010, dated 2015)
